We go through seven compounds from patent US20160232293A1, “DRUG SENSITIVITY BIOMARKERS AND METHODS OF IDENTIFYING AND USING DRUG SENSITIVITY BIOMARKERS” (SANFORD-BURNHAM MEDICAL RESEARCH INSTITUTE, priority 2013, published 2016).

In experiment [1] the test system is human cancer cell lines. The experiment can be described thus: e-Drug analysis: CCLE drug activity (activity area) in cell lines with missense mutations in a protein functional region (PFR) or whole protein versus cell lines without. It is filed as cell-based.
Excerpt: The CCLE (Cancer Cell Line Encyclopedia; website broadinstitute.org/ccle; Barretina et al., Nature 483:603-607 (2012)) dataset, which includes the mutation profiles of 1,668 genes in 906 human cancer cell lines and drug activity data for 24 different anticancer compounds, was used in the present study. The analysis was focused on missense mutations, as truncating mutations can sometimes be misleading when performing the analysis in terms of functional regions. For example, when analyzing a protein that contains two different domains, if a truncating mutation happens in the first domain, it is not obvious whether the functional consequences of the mutation are caused by the fact that the first domain is altered or that the second domain is missing. […] From the original 42,603 genomic-point mutations in 1,668 genes, 156,817 protein missense mutations were obtained in 9,311 proteins.
CCLE contains data on the drug activity of 24 different compounds in 479 cell lines from 8-point dose-response curves. […] In our analysis only the activity area was used because, according to the CCLE, it captures simultaneously both variables of drug activity: its efficacy and its potency.
For the present study, protein functional regions were defined as domains or intrinsically disordered regions. […] To identify protein domains, annotated Pfam domains were retrieved from ENSEMBL for each protein isoform. A set of 1,300 potential domains identified by AIDA (ab initio domain assembly; Xu et al., Nucleic Acids Research 12:W308-W313 (2014) (Web Server issue); Internet site ffas.burnham.org/AIDA/), an algorithm based on remote homology, were also included. Foldindex (Prilusky et al., Bioinformatics 21(16):3435-8 (2005)) was used to predict intrinsically disordered regions for each protein. Those regions with a predicted unfolded score below −0.1 were included in the present study.
The different mutations of each cell line were mapped to these protein features, giving a total of 30,798 altered regions in 906 cell lines. These regions are divided into 19,918 Pfam domains and 10,880 intrinsically disordered regions. Note that the features can overlap, as the predictions were performed independently and there is no reason why, for example, an intrinsically unfolded region cannot overlap with (or even be located within) a Pfam domain. Note also that these numbers refer to PFRs in all known protein isoforms according to ENSEMBL v72.
The e-Drug analysis protocol looks for PFRs that, when mutated, correlate with drug activity of the different drugs. […] A Wilcoxon test was then performed comparing the drug activity of each compound in the two groups and kept those with a p-value below 0.01. Finally, for those gene regions associated to a certain drug, the activity of the cell lines mutated in the region of interest was compared to the activity of cell lines mutated in other regions of the gene. […] In this case, since the number of cell lines in both groups is lower and fewer tests were performed, a significance threshold of 0.05 instead of 0.01 was established. True positives were considered those PFR that passed both thresholds and that are not in proteins that show an association (p<0.01) with the same drug at the whole-protein level. Note that the analysis is performed independently for each PFR.
To overcome these limitations and decrease the number of false positives among the associations three different thresholds were required for an association to be considered positive (see
Experiment [2] is described as follows: TCGA survival analysis of patients treated with CCLE drugs, grouped by mutations in resistance-associated PFRs. It is filed as in vivo, human. Particulars: for outcome of treated patients with mutations in PFRs associated with resistance vs mutations in other regions of the same proteins or no mutations: TCGA patients treated with Topoisomerase inhibitors Irinotecan and Topotecan (n=188), pooled, p<0.01; for prediction of patient outcome by mutation status of the whole proteins that contain the associated PFRs: TCGA patients treated with Topoisomerase inhibitors, whole-protein level. The text has this:
Both clinical and mutation data for the 3,205 tumors described in the pan-cancer analysis of the TCGA were downloaded. Data from patients that had not been treated with any of the drugs included in the CCLE was then filtered out. Since most drugs included in the CCLE are still in under clinical research, there were only enough patients to analyze 2 different drugs: paclitaxel (n=778) and irinotecan (n=58). Each of these subsets of patients have then been classified in 3 groups: those that have a mutation in a PFR that, according to the analysis, increases resistance to the drug used to treat them; those with mutations in other regions of the same genes; and those with no mutations in these genes.
As a result very few patients in the TCGA dataset carry mutations in the former type of regions and were treated with the matching drug. The survival analysis was performed using the “Survival” package for R.

The structures appear in SMILES notation.

As to `C#Cc1cccc(Nc2ncnc3cc(OCCOC)c(OCCOC)cc23)c1` [Erlotinib], in experiment [1] (protein level analysis, MSH6 whole protein), the “association of MSH6 mutations with the drug at protein level” value is listed as “potential association”.

As to `CCc1c2c(nc3ccc(OC(=O)N4CCC(N5CCCCC5)CC4)cc13)-c1cc3c(c(=O)n1C2)COC(=O)[C@]3(O)CC` [Irinotecan], the “outcome of treated patients with mutations in PFRs associated with resistance vs mutations in other regions of the same proteins or no mutations” value in experiment [2] is “worse outcomes”. Besides, the “prediction of patient outcome by mutation status of the whole proteins that contain the associated PFRs” value in experiment [2] (p>0.9) was “cannot predict the outcome”.

Regarding `CS(=O)(=O)CCNCc1ccc(-c2ccc3ncnc(Nc4ccc(OCc5cccc(F)c5)c(Cl)c4)c3c2)o1` [Lapatinib], the “drug activity associated with mutations in the connector domain (Pf05188) of MSH6” value in experiment [1] (PFR level, missense mutations, MSH6 Pf05188) is recorded as “higher”.

As for `C[C@@H](Oc1cc(-c2cnn(C3CCNCC3)c2)cnc1N)c1c(Cl)ccc(F)c1Cl` [PF2341066], the “sensitivity of cell lines with mutations in the ERBB3 receptor domain” value in experiment [1] (PFR level analysis, N-terminal EGF receptor domain of ERBB3) is “resistant”. Besides, the “behavior of cell lines with mutations in any other PFR of ERBB3” value in experiment [1] (PFR level analysis, other PFRs of ERBB3 such as the kinase domain) is given as “do not show any specific behavior”. Besides, the “activity of the drug in cell lines with mutations in ERBB3” value in experiment [1] (protein level analysis, ERBB3 whole protein) is recorded as “do not show any bias”.

Turning to `CC(=O)O[C@H]1C(=O)[C@@]2(C)[C@H]([C@H](OC(=O)c3ccccc3)[C@]3(O)C[C@H](OC(=O)[C@H](O)[C@@H](NC(=O)c4ccccc4)c4ccccc4)C(C)=C1C3(C)C)[C@]1(OC(C)=O)CO[C@@H]1C[C@@H]2O` [Paclitaxel], the “outcome of treated patients with mutations in PFRs associated with increased resistance” value in experiment [2] (TCGA patients treated with paclitaxel (n=778), p>0.9) is listed as “no differences”.

For the compound `Cn1c(Nc2ccc(C(F)(F)F)cc2)nc2cc(Oc3ccnc(-c4ncc(C(F)(F)F)[nH]4)c3)ccc21` [RAF265], the “drug activity associated with mutations in the ATPase domain (Pf00488) of MSH6” value in experiment [1] (PFR level, missense mutations, MSH6 Pf00488) is “higher”.

On to `CC[C@@]1(O)C(=O)OCc2c1cc1n(c2=O)Cc2cc3c(CN(C)C)c(O)ccc3nc2-1` [Topotecan], for which the “outcome of treated patients with mutations in PFRs associated with resistance vs mutations in other regions of the same proteins or no mutations” value in experiment [2] is recorded as “worse outcomes”. Also, the “prediction of patient outcome by mutation status of the whole proteins that contain the associated PFRs” value in experiment [2] (p>0.9) was “cannot predict the outcome”.
